In patent US10329286B2, “FXR (NR1H4) modulating compounds” (Gilead Sciences, Inc., priority 2016, dated 2019):
Where two headings read alike, the source gives them in different places.

What was measured:
[1] = target: FXR ligand binding domain (Homo sapiens (Human), UniProt Q96RI1); assay: Mammalian one hybrid (M1H) Gal4 reporter gene assay in HEK293 cells; assay type: cell-based
Experimental: Determination of a ligand mediated Gal4 promoter driven transactivation to quantify ligand binding mediated activation of FXR was performed as follows.
The cDNA part encoding the FXR ligand binding domain was cloned into vector pCMV-BD (Stratagene) as a fusion to the yeast GAL4 DNA binding domain under the control of the CMV promoter. […] The plasmid pFR-Luc (Stratagene) was used as the reporter plasmid, containing a synthetic promoter with five tandem repeats of the yeast GAL4 binding sites, driving the expression of the Photinus pyralis (American firefly) luciferase gene as the reporter gene. In order to improve experimental accuracy the plasmid pRL-CMV (Promega) was cotransfected. pRL-CMV contains the constitutive CMV promoter, controlling the expression of the Renilla reniformis luciferase. All Gal4 reporter gene assays were done in HEK293 cells (obtained from DSMZ, Braunschweig, Germany) grown in MEM with L-Glutamine and Earle's BSS supplemented with 10% fetal bovine serum, 0.1 mM nonessential amino acids, 1 mM sodium pyruvate, and 100 units Penicilin/[…] per mL at 37° C. in 5% CO2. Medium and supplements were obtained from Invitrogen. For the assay, […] cells were plated per well in 96 well plates in 100 μL per well MEM without Phenol Red and L-Glutamine and with Earle's BSS supplemented with 10% charcoal/dextran treated FBS (HyClone, South Logan, Utah), 0.1 mM nonessential amino acids, 2 mM glutamine, 1 mM sodium pyruvate, and 100 units Penicilin/[…] per mL, incubated at 37° C. in 5% CO2. The following day the cells were >90% confluence. […] MEM with the same composition as used for plating cells was added 2-4 h after addition of transfection mixture. Then compound stocks, prediluted in MEM were added (final vehicle concentration not exceeding 0.1%). […] All experiments were done in triplicates.

[2] = target: human FXR alpha ligand binding domain (Homo sapiens (Human), UniProt Q96RI1); assay: FRET activity assay (LANCE; ligand mediated FXR-LBD / SRC-1 cofactor peptide interaction); assay type: biochemical
Experimental: Determination of a ligand mediated cofactor peptide interaction to quantify ligand binding to the nuclear receptor FXR was performed as follows.
Preparation of human FXR alpha ligand binding domain: The human FXRalpha LBD was expressed in E. coli strain BL21(DE3) as an N-terminally GST tagged fusion protein. The DNA encoding the FXR ligand binding domain was cloned into vector pDEST15 (Invitrogen). Expression was under control of an IPTG inducible T7 promoter. The amino acid boundaries of the ligand binding domain were amino acids 187-472 of Database entry NM_005123 (RefSeq).
Expression and purification of the FXR-LBD: An overnight preculture of a transformed E. coli strain was diluted 1:20 in LB-Ampicillin medium and grown at 30° C. to an optical density of OD600=0.4-0.6. Gene expression was then induced by addition of 0.5 mM IPTG. Cells were incubated an additional 6 h at 30° C., 180 rpm. Cells were collected by centrifugation (7000×g, 7 min, rt). Per liter of original cell culture, cells were resuspended in 10 mL lysis buffer (50 mM Glucose, 50 mM Tris pH 7.9, 1 mM EDTA and 4 mg/mL lysozyme) and left on ice for 30 min. Cells were then subjected to sonication and cell debris removed via centrifugation (22000×g, 30 min, 4° C.). Per 10 mL of supernatant 0.5 mL prewashed Glutathione 4B sepharose slurry (Qiagen) was added and the suspension kept slowly rotating for 1 h at 4° C. Glutathione 4B sepharose beads were pelleted by centrifugation (2000×g, 15 sec, 4° C.) and washed twice in wash buffer (25 mM Tris, 50 mM KCl, 4 mM MgCl2 and 1M NaCl). The pellet was resuspended in 3 mL elution buffer per liter of original culture (elution buffer: 20 mM Tris, 60 mM KCl, 5 mM MgCl2 and 80 mM glutathione added immediately prior to use as powder). The suspension was left rotating for 15 min at 4° C., the beads pelleted and eluted again with half the volume of elution buffer than the first time. The eluates were pooled and dialysed overnight in 20 mM Hepes buffer (pH 7.5) containing 60 mM KCl, 5 mM MgCl2 as well as 1 mM dithiothreitol and 10% (v/v) glycerol. The protein was analysed by SDS-Page.
The method measures the ability of putative ligands to modulate the interaction between the purified bacterial expressed FXR ligand binding domain (LBD) and a synthetic biotinylated peptide based on residues 676-700 of SRC-1 (LCD2, 676-700). The sequence of the peptide used was B-[…]-COOH (SEQ ID NO: 1) where the N-terminus was biotinylated (B). The ligand binding domain (LBD) of FXR was expressed as fusion protein with GST in BL-21 cells using the vector pDEST15. Cells were lysed by sonication, and the fusion proteins purified over glutathione sepharose (Pharmacia) according to the manufacturers instructions. For screening of compounds for their influence on the FXR-peptide interaction, the Perkin Elmer LANCE technology was applied. This method relies on the binding dependent energy transfer from a donor to an acceptor fluorophor attached to the binding partner of interest. For ease of handling and reduction of background from compound fluorescence LANCE technology makes use of generic fluorophore labels and time resolved detection.
Assays were done in a final volume of 25 μL in a 384 well plate, in a Tris-based buffer (20 mM Tris-HCl pH 7.5; 60 mM KCl, 5 mM MgCl2; 35 ng/μL BSA), containing 20-60 ng/well recombinantly expressed FXR-LBD fused to GST, 200-600 nM N-terminally biotinylated peptide, representing SRC1 aminoacids 676-700, 200 ng/well Streptavidin-x1APC conjugate (Prozyme) and 6-10 ng/well Eu W1024-antiGST (Perkin Elmer). DMSO content of the samples was kept at 1%. After generation of the assay mix and diluting the potentially FXR modulating ligands, the assay was equilibrated for 1 h in the dark at rt in FIA-plates black 384 well (Greiner). The LANCE signal was detected by a Perkin Elmer VICTOR2VTM Multilabel Counter. The results were visualized by plotting the ratio between the emitted light at 665 and 615 nm. […]

[3] = Gal4-FXR-LBD luciferase reporter, HEK293 cells, 16 h, read-out: M1H EC50
[4] = GST-FXR-LBD, biotinylated SRC-1 peptide 676-700, read-out: FRET EC50

FXR ligand binding domain, sequence (Q96RI1 other isoform, or with tags, fused parts or gaps): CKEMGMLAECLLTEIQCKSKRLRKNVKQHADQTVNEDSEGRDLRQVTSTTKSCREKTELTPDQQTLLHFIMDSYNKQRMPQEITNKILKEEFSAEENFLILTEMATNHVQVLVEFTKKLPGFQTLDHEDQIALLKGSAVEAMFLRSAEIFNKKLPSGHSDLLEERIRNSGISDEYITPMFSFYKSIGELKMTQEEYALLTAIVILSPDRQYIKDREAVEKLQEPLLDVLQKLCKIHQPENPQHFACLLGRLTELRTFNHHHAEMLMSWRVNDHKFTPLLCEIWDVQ
human FXR alpha ligand binding domain, sequence (Q96RI1 other isoform, or with tags, fused parts or gaps): as above

Compound	EC50 [1] [nM]	EC50 [2] [nM]	EC50 [1, 3] [nM]	EC50 [2, 4] [nM]
O=C(O)c1ccnc(N2CC(O)(c3ccc(OCc4c(-c5c(Cl)cccc5Cl)noc4C4CC4)cc3Cl)C2)c1 [Comparative Compound 1, reference compound]	774	14	–	–
O=C(O)c1ccnc(N2CC(O)(c3ccc(OCc4c(-c5c(Cl)cncc5Cl)noc4C4CC4)cc3Cl)C2)c1 [Comparative Compound 2, reference compound]	–	–	744	48
O=C(O)c1cc(N2CC(O)(c3ccc(OCc4c(-c5c(Cl)cccc5Cl)noc4C4CC4)cc3Cl)C2)nc(C(F)(F)F)c1 [Comparative Compound 3, reference compound]	–	–	131	47
O=C(O)c1ccc(N2CC(O)(c3ccc(OCc4c(-c5c(Cl)cncc5Cl)noc4C4CC4)cc3Cl)C2)nc1 [Example 1, 6-(3-(2-chloro-4-((5-cyclopropyl-3-(3,5-dichloropyridin-4-yl)isoxazol-4-yl)methoxy)phenyl)-3-hydroxyazetidin-1-yl)nicotinic acid]	–	–	95	6.1
O=C(O)c1ccc(N2CC(O)(c3ccc(OCc4c(-c5c(Cl)cccc5Cl)noc4C4CC4)cc3Cl)C2)nc1 [Example 2, 6-(3-(2-chloro-4-((5-cyclopropyl-3-(2,6-dichlorophenyl)isoxazol-4-yl)methoxy)phenyl)-3-hydroxyazetidin-1-yl)nicotinic acid]	–	–	7.1	2.6
Cc1nc(N2CC(O)(c3ccc(OCc4c(-c5c(Cl)cccc5Cl)noc4C4CC4)cc3Cl)C2)ccc1C(=O)O [Example 3, 6-(3-(2-chloro-4-((5-cyclopropyl-3-(2,6-dichlorophenyl)isoxazol-4-yl)methoxy)phenyl)-3-hydroxyazetidin-1-yl)-2-methylnicotinic acid]	–	–	6.9	4.4
Cc1cc(C(=O)O)cnc1N1CC(O)(c2ccc(OCc3c(-c4c(Cl)cccc4Cl)noc3C3CC3)cc2Cl)C1 [Example 4, 6-(3-(2-chloro-4-((5-cyclopropyl-3-(2,6-dichlorophenyl)isoxazol-4-yl)methoxy)phenyl)-3-hydroxyazetidin-1-yl)-5-methylnicotinic acid]	–	–	5.1	3.9
O=C(O)c1cnc(N2CC(O)(c3ccc(OCc4c(-c5c(Cl)cccc5Cl)noc4C4CC4)cc3Cl)C2)c(F)c1 [Example 5, 6-(3-(2-chloro-4-((5-cyclopropyl-3-(2,6-dichlorophenyl)isoxazol-4-yl)methoxy)phenyl)-3-hydroxyazetidin-1-yl)-5-fluoronicotinic acid]	–	–	4.5	4.8
O=C(O)c1ccc(N2CC(O)(c3ccc(OCc4c(-c5c(Cl)cccc5Cl)noc4C4CC4)cc3Cl)C2)nc1C(F)(F)F [Example 6, 6-(3-(2-chloro-4-((5-cyclopropyl-3-(2,6-dichlorophenyl)isoxazol-4-yl)methoxy)phenyl)-3-hydroxyazetidin-1-yl)-2-(trifluoromethyl)nicotinic acid]	–	–	56	3.1
Cc1cc(N2CC(O)(c3ccc(OCc4c(-c5c(Cl)cccc5Cl)noc4C4CC4)cc3Cl)C2)ncc1C(=O)O [Example 7, 6-(3-(2-chloro-4-((5-cyclopropyl-3-(2,6-dichlorophenyl)isoxazol-4-yl)methoxy)phenyl)-3-hydroxyazetidin-1-yl)-4-methylnicotinic acid]	–	–	6.7	8.5
COc1cccc(OC)c1-c1noc(C2CC2)c1COc1ccc(C2(O)CN(c3ncc(C(=O)O)cc3F)C2)c(Cl)c1 [Example 8, 6-(3-(2-chloro-4-((5-cyclopropyl-3-(2,6-dimethoxyphenyl)isoxazol-4-yl)methoxy)phenyl)-3-hydroxyazetidin-1-yl)-5-fluoronicotinic acid]	–	–	593	15
Cc1cc(Cl)c(-c2noc(C3CC3)c2COc2ccc(C3(O)CN(c4ncc(C(=O)O)cc4F)C3)c(Cl)c2)c(Cl)c1 [Example 9, 6-(3-(2-chloro-4-((5-cyclopropyl-3-(2,6-dichloro-4-methylphenyl)isoxazol-4-yl)methoxy)phenyl)-3-hydroxyazetidin-1-yl)-5-fluoronicotinic acid]	–	–	26	57
O=C(O)c1cnc(N2CC(O)(c3ccc(OCc4c(-c5c(Cl)cncc5Cl)noc4C4CC4)cc3Cl)C2)c(F)c1 [Example 10, 6-(3-(2-chloro-4-((5-cyclopropyl-3-(3,5-dichloropyridin-4-yl)isoxazol-4-yl)methoxy)phenyl)-3-hydroxyazetidin-1-yl)-5-fluoronicotinic acid]	–	–	6.4	3.4
O=C(O)c1cnc(N2CC(O)(c3ccc(OCc4c(C5CC5)cnn4-c4c(Cl)cccc4Cl)cc3Cl)C2)c(F)c1 [Example 11, 6-(3-(2-chloro-4-((4-cyclopropyl-1-(2,6-dichlorophenyl)-1H-pyrazol-5-yl)methoxy)phenyl)-3-hydroxyazetidin-1-yl)-5-fluoronicotinic acid]	–	–	4.9	3.8
